# From patent US9718760B2, “Plasminogen activator inhibitor-1 inhibitors and methods of use thereof” (THE REGENTS OF THE UNIVERSITY OF MICHIGAN, priority 2012, dated 2017)
# What was measured:
# [1] = target: T1, recombinant active human PAI-1 (Homo sapiens (Human), UniProt P05121); assay: Fluorometric PAI-1/uPA IC50 plate assay at pH 7.8; assay type: biochemical; details: physiologic buffer
# Experimental: To determine the efficacy of various synthesized compounds as PAI-1 inhibitors at pH 7.8, additional fluorometric plate assays were carried out to measure the half maximal inhibitory concentration (IC50) of these compounds on recombinant active human PAI-1 in vitro.
# PAI-1 inhibitor compounds were dissolved in DMSO to a final concentration of (10-50 mM), depending upon solubility. […] Fluorescence, as a measure of the rate of AMC release by uPA, was read at the following wavelengths; excitation 370 nm, emission 440 nm. Controls included PAI-1 and uPA in the absence of compound and uPA alone. Percent PAI-1 inhibition was calculated using the following formula: [(uPA alone-uPA/PAI-1+ compound)/(uPA alone-PAI-1/uPA)]*100%. The IC50 was calculated using Graphit (IC50 0-100%).
# [2] = target: T1, recombinant active human PAI-1; assay: Fluorometric PAI-1/uPA IC50 plate assay at pH 7.4; assay type: biochemical
# Experimental: To determine the efficacy of various synthesized compounds as PAI-1 inhibitors, a fluorometric plate assay was carried out to measure the half maximal inhibitory concentration (IC50) of these compounds on recombinant active human PAI-1 in vitro. An IC50 is a measure of the effectiveness of a compound in inhibiting biological or biochemical function. Stated another way, IC50 represents the concentration of a drug that is required for 50% inhibition in vitro.
# PAI-1 inhibitor compounds were dissolved in DMSO to a final concentration of (10-50 mM), depending upon solubility. Compounds were then diluted in physiologic buffer (40 mM HEPES, 100 mM NaCl, 0.05% Tween-20, pH7.4) containing 10% DMSO and a dilution series (from 0 to 1000 uM depending on solubility) was prepared. 80 μL of compound was added per well to a 96-well black, opaque microplate in duplicate. 10 μL of 20 nM Recombinant active human PAI-1 (Molecular Innovations) in physiologic buffer (40 mM HEPES, 100 mM NaCl, 0.05% Tween-20, 10% DMSO, pH 7.4), or […] physiologic buffer with 10% human plasma, was added and the mixture was agitated for 15 minutes at room temperature. 10 μL of 25 nM uPA (Rheotromb®) was added to each reaction well and the plate was agitated for an additional 30 minutes at room temperature. Tripeptide aminomethylcoumarin Gly-Gly-Arg-AMC (Calbiochem) fluorogenic substrate (100 μL of 100 μM) was then added and residual uPA activity was determined based upon cleavage of this substrate. The rate of AMC release by uPA (fluorescence) was measured at an excitation wavelength of 370 nm and an emission wavelength of 440 nm. Controls included PAI-1 and uPA in the absence of compound and uPA alone. Percent PAI-1 inhibition was calculated using the following formula: [(uPA alone-uPA/PAI-1+ compound)/(uPA alone-PAI-1/uPA)]*100%. The IC50 was calculated using Graphit (IC50 0-100%).
# [3] = physiologic buffer (40 mM HEPES, 100 mM NaCl, 0.05% Tween-20, 10% DMSO), read-out: PAI-1/uPA IC50 in buffer
# [4] = physiologic buffer with 1.5% BSA (15 mg/mL), read-out: PAI-1/uPA IC50 in 1.5% BSA buffer
# [5] = physiologic buffer with 10% human plasma, read-out: PAI-1/uPA IC50 in 10% plasma buffer
# T1 sequence (P05121 24-402): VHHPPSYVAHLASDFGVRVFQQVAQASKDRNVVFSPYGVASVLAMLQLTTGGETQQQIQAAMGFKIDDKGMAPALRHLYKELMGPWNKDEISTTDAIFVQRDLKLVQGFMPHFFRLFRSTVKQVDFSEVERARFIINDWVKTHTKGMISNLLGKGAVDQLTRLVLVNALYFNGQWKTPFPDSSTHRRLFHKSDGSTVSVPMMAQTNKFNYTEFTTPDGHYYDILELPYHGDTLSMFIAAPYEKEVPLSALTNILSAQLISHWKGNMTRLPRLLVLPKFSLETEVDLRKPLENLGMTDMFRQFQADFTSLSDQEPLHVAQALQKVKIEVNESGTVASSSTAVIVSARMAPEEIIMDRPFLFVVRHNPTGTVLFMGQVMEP
Compound,IC50 [1] [µM],other results
CCCCCCCCCCN(CCN(CCCCCCCCCC)S(=O)(=O)c1ccc(O)c(O)c1)S(=O)(=O)c1ccc(O)c(O)c1 [C168],1.98,–
CCCCCCCCN(CCCCCCCC)S(=O)(=O)c1ccc(O)c(O)c1 [C170],5.49,–
CCCCCCN(CCCCCC)S(=O)(=O)c1ccc(O)c(O)c1 [C171],1.67,–
CCCCCCCCN(Cc1cc(Cl)c(O)c(Cl)c1)S(=O)(=O)c1ccc(O)c(O)c1 [C172],1.98,–
CCCCCCCCN(S(=O)(=O)c1ccc(-c2ccc(OC(F)(F)F)cc2)cc1)S(=O)(=O)c1ccc(O)c(O)c1 [C173],19.2,–
CCCCCCCCN(CC(O)c1ccccc1)S(=O)(=O)c1ccc(O)c(O)c1 (centres unmarked) [C175],6.74,–
CCCCCCCCN(CCN(CCCCCCCC)S(=O)(=O)c1ccc(O)c(O)c1)S(=O)(=O)c1ccc(O)c(O)c1 [C176],0.62,–
CCCCCCCCN(Cc1cccc(Cl)c1)S(=O)(=O)c1ccc(O)c(O)c1 [C177],5.11,–
CCCCCCCCN(Cc1cccc(C(F)(F)F)c1)S(=O)(=O)c1ccc(O)c(O)c1 [C179],2.4,–
CCCCCCCCN(CCCCCC)S(=O)(=O)c1ccc(O)c(O)c1 [C180],1.34,–
CCCCCCCN(S(=O)(=O)c1ccc(O)c(O)c1)S(=O)(=O)c1ccc(O)c(O)c1 [C182],0.033,–
CCCCCCCCCN(S(=O)(=O)c1ccc(O)c(O)c1)S(=O)(=O)c1ccc(O)c(O)c1 [C183],0.18,–
CCCCCCCN(CCN(CCCCCCC)S(=O)(=O)c1ccc(O)c(O)c1)S(=O)(=O)c1ccc(O)c(O)c1 [C184],0.59,–
CCCCCCCCCN(CCN(CCCCCCCCC)S(=O)(=O)c1ccc(O)c(O)c1)S(=O)(=O)c1ccc(O)c(O)c1 [C185],0.42,–
O=S(=O)(c1ccc(O)c(O)c1)N1CCC[C@H]1CCc1ccccc1 [C186],6.98,–
CCCCCCc1ccc(NS(=O)(=O)c2ccc(O)c(O)c2)cc1 [C187],0.91,–
CCCCCCc1ccc(N(S(=O)(=O)c2ccc(O)c(O)c2)S(=O)(=O)c2ccc(O)c(O)c2)cc1 [C188],0.12,–

Compound,IC50 [1] [µM],other results
CCCCCCc1ccc(N(S(=O)(=O)c2ccc(CCC)cc2)S(=O)(=O)c2ccc(O)c(O)c2)cc1 [C189],2.29,–
O=S(=O)(Nc1ccc(-c2cccc(F)c2)cc1)c1ccc(O)c(O)c1 [C190],9.7,–
CCCCCCCCN(S(=O)(=O)c1ccc(CCCCC)cc1)S(=O)(=O)c1ccc(O)c(O)c1 [C191],1.28,–
O=C(Nc1ccccc1)[C@@H]1CCCN1S(=O)(=O)c1ccc(O)c(O)c1 [C193],552,–
CCCCCCCCCCCCc1ccc(N(S(=O)(=O)c2ccc(O)c(O)c2)S(=O)(=O)c2ccc(O)c(O)c2)cc1 [C195],0.92,–
CCCCCCCCCCN(CCN(C)S(=O)(=O)c1ccc(O)c(O)c1)S(=O)(=O)c1ccc(O)c(O)c1 [C196],0.45,–
O=S(=O)(c1ccccc1)N(CCc1ccc(O)c(O)c1)S(=O)(=O)c1ccc(O)c(O)c1 [C197],0.173,–
O=S(=O)(NCCc1ccc(O)c(O)c1)c1ccc(O)c(O)c1 [C198],0.051,–
O=C1S/C(=C\c2ccc(O)c(O)c2)C(=O)N1Cc1ccccc1 [C199],5.36,–
CCCCN(C)C(=O)CSc1ccc(O)c(O)c1 [C200],58.4,–
"CC(C)(C)n1nc(-c2ccccc2)nc1-c1ccc(O)c(O)c1 [C201, 4-(1-(tert-butyl)-3-phenyl-1H-1,2,4-triazol-5-yl)benzene-1,2-diol]",181,–
O=C1S/C(=C\c2ccc(O)c(O)c2)C(=O)N1Cc1ccc(Br)cc1 [C203],17.1,–
O=C(NCc1ccc(Cl)cc1)c1ccc(O)c(O)c1 [C361],–,"IC50 [2, 3]: 232 µM; IC50 [2, 4]: 2000 µM; IC50 [2, 5]: 851 µM"
Cc1ccc(CNC(=O)C(=O)NN)cc1 [C362],–,"IC50 [2, 3]: 533 µM; IC50 [2, 4]: 353 µM; IC50 [2, 5]: 229 µM"
O=C(NCc1ccc(C(F)(F)F)cc1)c1ccc(O)c(O)c1 [C363],–,"IC50 [2, 3]: 199 µM; IC50 [2, 4]: 751 µM; IC50 [2, 5]: 309 µM"
O=C(NCc1cccc(C(F)(F)F)c1)c1ccc(O)c(O)c1 [C364],–,"IC50 [2, 3]: 475 µM; IC50 [2, 4]: 898 µM; IC50 [2, 5]: 533 µM"
